# Bridge positions count the residues as written; N and C are the ends. Square brackets hold non-standard residues; d marks the D form. Peptide text beside a SMILES is read from it. S5 = C=CCCC[C@](C)(N)C(=O)O
# Test system: mice with bleomycin-induced pulmonary fibrosis
# Test: Hydroxyproline content in lung of mice with pulmonary fibrosis
# Format: in vivo, C57BL/6 mice
# Settings: Table 3 groups, 2 mg/kg i.p.; left lung lobes; chloramine-T method
# Protocol: Male C57BL/6 mice were fasted overnight, then anesthetized with 45 mg/kg sodium pentobarbital by injection intraperitoneally (i.p.), and intratracheally injected with bleomycin at a dose of 3 U/kg. The specific operation steps are as follows: cut the neck skin of the mouse with as little trauma as possible, expose the trachea with the assistance of elbow ophthalmic forceps, puncture the trachea and inject about 50 μL of bleomycin into the trachea with a microsyringe, rotate the mouse quickly and stand it upright for 5 minutes in order to make bleomycin evenly enter the left and right lobe, thereby constructing an animal model. The whole operation was performed at a surgical table at about […]. Mice in the sham operation group were intratracheally injected with an equal amount of physiological saline for injection.
# (§1) Hydroxyproline accounts for 13.4% (w/w) of collagen, and extremely small amount of elastin, while it is absent in other proteins. […] Pulmonary fibrosis models were prepared according to the method described in Example 2 and administered in groups according to Table 3. The content of hydroxyproline in the lobes of left lung of the animals was measured 28 days later, and the condition of pulmonary fibrosis was evaluated.
# The specific method is as follows: the mice in the animal model prepared in Example 2 was feed in a SPF animal room and treated with polypeptide according to the dosing schedule of Table 3, and all left lobes of lung of the experimental animal was taken on the 21st day after the animal model was constructed and the wet weight was recorded. Then 10% (w/w) tissue homogenate was prepared by ultrasonic homogenization using physiological saline. About 150 μL of homogenate supernatant was taken, and 500 μL of alkali hydrolysate was added (provided by Hydroxyproline alkaline hydrolysis kit of Nanjing Jiancheng Bioengineering Technology Co., Ltd.). After vortex mixing, the mixture was treated with alkaline hydrolysis for 40 min under conditions of 120° C., 0.1 Kpa. After adjusting the pH value, the volume was held constant, and the supernatant was taken after performing activated carbon treatment. The hydroxyproline was determined according to the chloramine-T method (the method of the present example refers to the instruction provided with kit, which was purchased from Nanjing Jiancheng Bioengineering Technology Co., Ltd.). […] In FIG. 10, “##” represents that P value is less than 0.01 when comparing the content of hydroxyproline in the administration group with that in the sham operation group; and “*” represents that P value is less than 0.05 and“**” represents that P value is less than 0.01 when comparing the content of hydroxyproline in the administration group with that in bleomycin group.
# as §1, with “collagen, and accounts for extremely small” for “collagen, and extremely small”, “in the all lobes of” for “in the lobes of”
# The specific method is as follows: the mice in the animal model prepared in Example 2 was feed in an SPF animal room and treated with polypeptide according to the dosing schedule of Table 3, and all the left lobes of lung of the experimental animal was taken on the 21st day after the animal model was constructed and the wet weight was recorded. Then 10% (w/w) tissue homogenate was prepared by ultrasonic homogenization using physiological saline. About 150 μL of homogenate supernatant was taken, and 500 μL of alkali hydrolysate was added (provided by Hydroxyproline alkaline hydrolysis kit of Nanjing Jiancheng Bioengineering Technology Co., Ltd.). After vortex mixing, the mixture was treated with alkaline hydrolysis for 40 min under conditions of 120° C., 0.1 Kpa. […]
row,Structure (SMILES),hydroxyproline content (μg/mg protein)
1,CSCC[C@H](NC(=O)[C@H](CC(C)C)NC(=O)[C@@H](N)Cc1c[nH]cn1)C(=O)N[C@@H](C)C(=O)N[C@@H](CS)C(=O)N[C@@H](Cc1ccccc1)C(=O)N[C@H](C(=O)N[C@@H](CS)C(=O)N[C@@H](C)C(=O)N[C@@H](CCCCN)C(=O)N[C@@H](CCCCN)C(=O)N[C@@H](CC(C)C)C(=O)N[C@@H](CCCCN)C(=O)N[C@@H](CCCCN)C(=O)N[C@@H](CCCNC(=N)N)C(=O)O)[C@@H](C)O [MR2] (H-HLMACFTCAKKLKKR-OH; N-terminus and C-terminus assumed),0.9087
2,"CSCC[C@@H]1NC(=O)[C@H](CC(C)C)NC(=O)[C@@](C)(N)CCCC=CCCC[C@@](C)(C(=O)N[C@@H](Cc2ccccc2)C(=O)N[C@H](C(=O)N[C@@H](CS)C(=O)N[C@@H](C)C(=O)N[C@@H](CCCCN)C(=O)N[C@@H](CCCCN)C(=O)N[C@@H](CC(C)C)C(=O)N[C@@H](CCCCN)C(=O)N[C@@H](CCCCN)C(=O)N[C@@H](CCCNC(=N)N)C(=O)O)[C@@H](C)O)NC(=O)[C@H](C)NC1=O [S1, S5-Leu-Met-Ala-S5-Phe-Thr-Cys-Ala-Lys-Lys-Leu-Lys-Lys-Arg] (H-[S5]LMA[S5]FTCAKKLKKR-OH; staple 1-5; N-terminus and C-terminus assumed)",0.7087
3,"CSCC[C@@H]1NC(=O)[C@@](C)(NC(=O)[C@@H](N)Cc2c[nH]cn2)CCCC=CCCC[C@@](C)(C(=O)N[C@H](C(=O)N[C@@H](CS)C(=O)N[C@@H](C)C(=O)N[C@@H](CCCCN)C(=O)N[C@@H](CCCCN)C(=O)N[C@@H](CC(C)C)C(=O)N[C@@H](CCCCN)C(=O)N[C@@H](CCCCN)C(=O)N[C@@H](CCCNC(=N)N)C(=O)O)[C@@H](C)O)NC(=O)[C@H](CS)NC(=O)[C@H](C)NC1=O [S2, His-S5-Met-Ala-Cys-S5-Thr-Cys-Ala-Lys-Lys-Leu-Lys-Lys-Arg] (H-H[S5]MAC[S5]TCAKKLKKR-OH; staple 2-6; N-terminus and C-terminus assumed)",0.7063
4,"CC(C)C[C@H](NC(=O)[C@H](CCCCN)NC(=O)[C@H](CCCCN)NC(=O)[C@H](C)NC(=O)[C@H](CS)NC(=O)[C@]1(C)CCCC=CCCC[C@](C)(NC(=O)[C@H](CC(C)C)NC(=O)[C@@H](N)Cc2c[nH]cn2)C(=O)N[C@@H](C)C(=O)N[C@@H](CS)C(=O)N[C@@H](Cc2ccccc2)C(=O)N1)C(=O)N[C@@H](CCCCN)C(=O)N[C@@H](CCCCN)C(=O)N[C@@H](CCCNC(=N)N)C(=O)O [S3, His-Leu-S5-Ala-Cys-Phe-S5-Cys-Ala-Lys-Lys-Leu-Lys-Lys-Arg] (H-HL[S5]ACF[S5]CAKKLKKR-OH; staple 3-7; N-terminus and C-terminus assumed)",0.8287
5,"CSCC[C@H](NC(=O)[C@H](CC(C)C)NC(=O)[C@@H](N)Cc1c[nH]cn1)C(=O)N[C@@]1(C)CCCC=CCCC[C@@](C)(C(=O)N[C@@H](C)C(=O)N[C@@H](CCCCN)C(=O)N[C@@H](CCCCN)C(=O)N[C@@H](CC(C)C)C(=O)N[C@@H](CCCCN)C(=O)N[C@@H](CCCCN)C(=O)N[C@@H](CCCNC(=N)N)C(=O)O)NC(=O)[C@H]([C@@H](C)O)NC(=O)[C@H](Cc2ccccc2)NC(=O)[C@H](CS)NC1=O [S4, His-Leu-Met-S5-Cys-Phe-Thr-S5-Ala-Lys-Lys-Leu-Lys-Lys-Arg] (H-HLM[S5]CFT[S5]AKKLKKR-OH; staple 4-8; N-terminus and C-terminus assumed)",0.65
6,"CSCC[C@H](NC(=O)[C@H](CC(C)C)NC(=O)[C@@H](N)Cc1c[nH]cn1)C(=O)N[C@@H](C)C(=O)N[C@@]1(C)CCCC=CCCC[C@@](C)(C(=O)N[C@@H](CCCCN)C(=O)N[C@@H](CCCCN)C(=O)N[C@@H](CC(C)C)C(=O)N[C@@H](CCCCN)C(=O)N[C@@H](CCCCN)C(=O)N[C@@H](CCCNC(=N)N)C(=O)O)NC(=O)[C@H](CS)NC(=O)[C@H]([C@@H](C)O)NC(=O)[C@H](Cc2ccccc2)NC1=O [S5, His-Leu-Met-Ala-S5-Phe-Thr-Cys-S5-Lys-Lys-Leu-Lys-Lys-Arg] (H-HLMA[S5]FTC[S5]KKLKKR-OH; staple 5-9; N-terminus and C-terminus assumed)",0.6575

# From patent publication US20210179680A1, “POLYPEPTIDE, DERIVATIVES THEREOF, AND APPLICATION THEREOF IN PREPARATION OF DRUGS HAVING RESISTANCE TO PULMONARY FIBROSIS” (priority 2016, published 2021)
